Values of other authors as cited in patent US12054764B2, “High-throughput screens for exploring biological functions of microscale biological systems” (THE BROAD INSTITUTE, INC., priority 2017, dated 2024).
Converted amounts (≈) assume the structure as drawn.

Tested on: E. coli
Conditions: stated in the legend of FIG. 10 as the loading concentration in 2% ultra-low melt agarose droplets

CC1(C)S[C@@H]2[C@H](NC(=O)[C@H](N)c3ccccc3)C(=O)N2[C@H]1C(=O)O [Ampicillin]
minimum inhibitory concentration (MIC): 5 µg/mL (≈ 14.3 µM)
